Here are results for 8 compounds from PubChem BioAssay (NCI).

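Following 48 hours of exposure in 96-well plates, responses at five concentrations were used to interpolate endpoints linearly. GI50 is the concentration that inhibits growth by half. TGI: total growth inhibition.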

Test systems include A498 renal; A549 NSCLC; RXF 393 renal; CCRF-CEM leukemia; UACC-62 melanoma; PC-3 prostate; SNB-19 CNS; UACC-257 melanoma; SK-MEL-28 melanoma; SNB-75 CNS.
Common to all, as to experiment: NCI-60 cell line screen, 48 h

As for `Cc1cc(N)c2cc(NC(=O)/C=C\c3ccccc3Cl)ccc2n1`, the GI50 in the assay on A498 renal was 1.5 µM; with A549 NSCLC, 1.71 µM; with RXF 393 renal, 1.45 µM; in the assay on CCRF-CEM leukemia it was 0.204 µM; with UACC-62 melanoma, 1.05 µM; in the assay on PC-3 prostate, 1.46 µM. In addition, the GI50 with SNB-19 CNS was 1.56 µM; in the assay on UACC-257 melanoma, 1.76 µM; in the assay on SK-MEL-28 melanoma, 0.447 µM; in the assay with SNB-75 CNS, 1.7 µM. The TGI in the assay on A498 renal turned out to be 2.95 µM; in the assay on A549 NSCLC, 3.25 µM; with RXF 393 renal it was 2.91 µM; with CCRF-CEM leukemia, 0.448 µM; in the assay on UACC-62 melanoma, 2.49 µM; in the assay with PC-3 prostate, 2.84 µM. For the same compound, the TGI in the assay with SNB-19 CNS stood at 2.95 µM; in the assay with UACC-257 melanoma, 3.23 µM; with SK-MEL-28 melanoma it was 0.886 µM; in the assay with SNB-75 CNS it was 3.21 µM.
Regarding `O=C(/C=C/c1cccc(Cl)c1)c1ccccc1`, the GI50 is 10.2 µM with A498 renal; 14.9 µM with A549 NSCLC; 12.2 µM with RXF 393 renal; 3.49 µM in the assay on CCRF-CEM leukemia; 13.9 µM in the assay on UACC-62 melanoma; 4.13 µM in the assay on PC-3 prostate. For the same compound, the GI50 is 11.7 µM in the assay with SNB-19 CNS, 15.1 µM in the assay with UACC-257 melanoma, 15.9 µM with SK-MEL-28 melanoma and 15.1 µM in the assay on SNB-75 CNS. Moreover, the TGI was found to be 21.9 µM in the assay with A498 renal; 29.3 µM in the assay with A549 NSCLC; 24.8 µM with RXF 393 renal; 23.2 µM in the assay with CCRF-CEM leukemia; 27.9 µM in the assay on UACC-62 melanoma; 22.3 µM in the assay on PC-3 prostate. Also, the TGI with SNB-19 CNS is 25.8 µM; in the assay on UACC-257 melanoma, 29 µM; in the assay with SK-MEL-28 melanoma, 30.2 µM; in the assay on SNB-75 CNS, 28.6 µM.
Consider `O=C1c2c[n+](Cc3ccccc3)ccc2-c2nc3ccccc3c3ccnc1c23`, for which the GI50 in the assay on A498 renal was 0.532 µM; in the assay with A549 NSCLC, 0.323 µM; in the assay on RXF 393 renal, 0.534 µM; in the assay on CCRF-CEM leukemia, 0.951 µM; in the assay with UACC-62 melanoma it was 0.594 µM; with PC-3 prostate, 0.826 µM. The GI50 is 0.389 µM in the assay with SNB-19 CNS, 0.865 µM with UACC-257 melanoma, 0.954 µM in the assay with SK-MEL-28 melanoma and 0.804 µM in the assay with SNB-75 CNS. The TGI stood at 1.97 µM in the assay with A498 renal; 1.99 µM with A549 NSCLC; 1.56 µM in the assay on RXF 393 renal; 2.81 µM in the assay on CCRF-CEM leukemia; 1.78 µM in the assay on UACC-62 melanoma; 3.92 µM in the assay with PC-3 prostate. The TGI with SNB-19 CNS was found to be 2.55 µM; in the assay on UACC-257 melanoma it was 2.33 µM; in the assay with SK-MEL-28 melanoma it was 3.95 µM; with SNB-75 CNS, 3.71 µM.
`CCN(CC)CCNc1ccc2nc(C)n3c4ccc(OC)cc4c(=O)c1c23`: the TGI in the assay on A498 renal came to 20.6 µM; with A549 NSCLC, 15 µM; with RXF 393 renal, 10.5 µM; with CCRF-CEM leukemia, 1.19 µM; with UACC-62 melanoma, 20 µM; in the assay on PC-3 prostate, 17.5 µM. In addition, the TGI turned out to be 13.7 µM with SNB-19 CNS, 22.3 µM in the assay with UACC-257 melanoma, 25.9 µM in the assay with SK-MEL-28 melanoma and 19 µM with SNB-75 CNS.
Regarding `COc1cccc2c1C(=O)c1c(O)c3c(c(O)c1C2=O)C[C@@](O)(C(=O)CO)C[C@@H]3OC1CC2C(OCN2CN2COC3C(C)OC(O[C@H]4C[C@](O)(C(=O)CO)Cc5c(O)c6c(c(O)c54)C(=O)c4c(OC)cccc4C6=O)CC32)C(C)O1` (some centres undefined), the GI50 in the assay with A498 renal is 0.0196 µM; in the assay on A549 NSCLC, 0.0056 µM; in the assay on RXF 393 renal, 0.000978 µM; in the assay on CCRF-CEM leukemia it was 0.000537 µM; in the assay on UACC-62 melanoma, 0.0032 µM; in the assay with PC-3 prostate, 0.0107 µM. Besides, the GI50 with SNB-19 CNS was 0.00292 µM; in the assay with UACC-257 melanoma, 0.0015 µM; with SK-MEL-28 melanoma, 0.016 µM; in the assay on SNB-75 CNS it was 0.00419 µM. The TGI with A498 renal was 0.0821 µM; in the assay on RXF 393 renal it was 0.0101 µM; in the assay on CCRF-CEM leukemia it was 0.0221 µM; in the assay on UACC-62 melanoma, 0.0159 µM; with PC-3 prostate, 0.0896 µM; with SNB-19 CNS it was 0.0256 µM. In addition, the TGI was found to be 0.0208 µM in the assay on UACC-257 melanoma, 0.0378 µM with SK-MEL-28 melanoma and 0.0149 µM with SNB-75 CNS.
As for `O=C(Nc1cccc2[nH]c(C(F)(F)F)nc12)c1ccc(Br)cc1F`, the GI50 is 2 µM with A498 renal; 3.27 µM with A549 NSCLC; 3.1 µM with RXF 393 renal; 3.23 µM in the assay with CCRF-CEM leukemia; 3.26 µM in the assay with UACC-62 melanoma; 2.75 µM in the assay with PC-3 prostate. Further, the GI50 is 3.79 µM in the assay on SNB-19 CNS, 2.35 µM with UACC-257 melanoma, 4.76 µM with SK-MEL-28 melanoma and 2.68 µM in the assay on SNB-75 CNS. Also, the TGI with A498 renal was 5.57 µM; with A549 NSCLC, 13.3 µM; in the assay on RXF 393 renal, 9.12 µM; in the assay with CCRF-CEM leukemia, 20.1 µM; with UACC-62 melanoma, 13.5 µM; in the assay on PC-3 prostate, 10.4 µM. Also, the TGI in the assay on SNB-19 CNS stood at 14.6 µM; in the assay on UACC-257 melanoma it was 6.67 µM; in the assay with SK-MEL-28 melanoma it was 16.4 µM; in the assay with SNB-75 CNS, 18 µM.
On to `CN(C)Cc1c[nH]c2nc[nH]c(=O)c12`, for which the TGI is greater than 100 µM with A498 renal; greater than 100 µM in the assay with A549 NSCLC; 45.9 µM with RXF 393 renal; 51 µM in the assay with CCRF-CEM leukemia; 39.7 µM with UACC-62 melanoma; greater than 100 µM with PC-3 prostate. Also, the TGI with SNB-19 CNS was greater than 100 µM; in the assay on UACC-257 melanoma it was 52 µM; in the assay on SK-MEL-28 melanoma it was greater than 100 µM; with SNB-75 CNS, greater than 100 µM.
Consider `O=C(NCCc1nccs1)c1cnc2c(S)cccc2c1`, for which the GI50 in the assay on A498 renal was 4.59 µM; with A549 NSCLC, 3.18 µM; in the assay with RXF 393 renal it was 3.07 µM; in the assay on CCRF-CEM leukemia, 1.77 µM; in the assay with UACC-62 melanoma, 2.68 µM; in the assay on PC-3 prostate, 4.39 µM. The GI50 was 3.41 µM in the assay with SNB-19 CNS, 3.77 µM with UACC-257 melanoma, 3.5 µM in the assay with SK-MEL-28 melanoma and 2.78 µM with SNB-75 CNS. In addition, the TGI is 16.7 µM with A498 renal; 13.3 µM in the assay on A549 NSCLC; 9.29 µM in the assay on RXF 393 renal; greater than 100 µM in the assay with CCRF-CEM leukemia; 24.1 µM in the assay with UACC-62 melanoma; 26.6 µM in the assay with PC-3 prostate. The TGI in the assay on SNB-19 CNS was 33.1 µM; in the assay with UACC-257 melanoma, 15.3 µM; in the assay on SK-MEL-28 melanoma, greater than 100 µM; in the assay with SNB-75 CNS it was 17.6 µM.
